Test results from the NIST ThermoML archive (doi:10.1016/j.jct.2007.05.001).
Numbers after ± are expanded uncertainties.

Experiment: refractive index (Na D-line) (dimensionless)
Details: 293.1 K; 101.33 kPa; Liquid; Standard Abbe refractometry

SMILES | refractive index
Cc1cccc(C)c1 [1,3-dimethylbenzene] | 1.4943 ± 0.0008
O=CN1CCOCC1 [N-formylmorpholine] | 1.484 ± 0.0008
